Square brackets hold non-standard residues; d marks the D form. Peptide text beside a SMILES is read from it. * marks the point of attachment. Cbz = O=C(OCc1ccccc1)*; Bn = c1ccc(C*)cc1
Tests used:
[1] = target: Protein farnesyltransferase (Rattus norvegicus, UniProt Q02293+Q04631); experiment: In vitro inhibition of rat farnesyltransferase.; type: protein-complex assay
Mus musculus = species: Mus musculus; experiment: Minimum effective dose required to detect unfarnesylated Ras in H-Ras-transformed NIH3T3 (H-Ras-F) cells injected into mice.; type: functional

SMILES	IC50 [1]	MED (Mus musculus)
C[C@H](Cc1ccccc1)NC(=O)CN(Cc1ccc(OCc2ccccc2)cc1)C(=O)[C@H](Cc1c[nH]cn1)NC(=O)OCc1ccccc1	3 nM	0.05 µM
CC(CNC(=O)CN(Cc1ccc(OCc2ccccc2)cc1)C(=O)[C@H](Cc1c[nH]cn1)NC(=O)OCc1ccccc1)c1ccccc1 (some centres not stated)	8 nM	0.05 µM
C[C@@H](Cc1ccccc1)NC(=O)CN(Cc1ccc(OCc2ccccc2)cc1)C(=O)[C@H](Cc1c[nH]cn1)NC(=O)OCc1ccccc1	41 nM	0.2 µM
CCC(CC)(CNC(=O)CN(Cc1ccc(OCc2ccccc2)cc1)C(=O)[C@H](Cc1c[nH]cn1)NC(=O)OCc1ccccc1)c1ccccc1	–	0.2 µM
CC(C)(Cc1ccccc1)NC(=O)CN(Cc1ccc(OCc2ccccc2)cc1)C(=O)[C@H](Cc1c[nH]cn1)NC(=O)OCc1ccccc1	270 nM	1 µM
C[C@@H](NC(=O)[C@H](Cc1c[nH]c2ccccc12)NC(=O)[C@H](COCc1ccccc1)NC(=O)[C@H](Cc1ccc(OCc2ccccc2)cc1)NC(=O)[C@H](Cc1c[nH]cn1)NC(=O)OCc1ccccc1)C(N)=O (Cbz-HY(Bn)S(Bn)W[dA]-NH2)	–	>100 µM
O=C(CN(Cc1ccc(OCc2ccccc2)cc1)C(=O)[C@H](Cc1c[nH]cn1)NC(=O)OCc1ccccc1)NCCc1ccccc1	62 nM	0.1 µM

Continued by falling IC50 [1], values first:

IC50 [1]	SMILES	MED (Mus musculus)
320 nM	O=C(CN(Cc1ccc(OCc2ccccc2)cc1)C(=O)[C@H](Cc1c[nH]cn1)NC(=O)OCc1ccccc1)NCCOCc1ccccc1	1 µM
25 nM	CCCC(CNC(=O)CN(Cc1ccc(OCc2ccccc2)cc1)C(=O)[C@H](Cc1c[nH]cn1)NC(=O)OCc1ccccc1)c1ccccc1 (some centres not stated)	0.2 µM
17 nM	O=C(CN(Cc1ccc(OCc2ccccc2)cc1)C(=O)[C@H](Cc1c[nH]cn1)NC(=O)OCc1ccccc1)NCC1(c2ccccc2)CCCC1	0.2 µM
16 nM	C[C@@H](CNC(=O)CN(Cc1ccc(OCc2ccccc2)cc1)C(=O)[C@H](Cc1c[nH]cn1)NC(=O)OCc1ccccc1)c1ccccc1	0.2 µM
7 nM	O=C(CN(Cc1ccc(OCc2ccccc2)cc1)C(=O)[C@H](Cc1c[nH]cn1)NC(=O)OCc1ccccc1)NCC1(c2ccccc2)CC1	0.02 µM
6 nM	O=C(CN(Cc1ccc(OCc2ccccc2)cc1)C(=O)[C@H](Cc1c[nH]cn1)NC(=O)OCc1ccccc1)NCC1(c2ccccc2)CCC1	0.02 µM
5 nM	CCC(CNC(=O)CN(Cc1ccc(OCc2ccccc2)cc1)C(=O)[C@H](Cc1c[nH]cn1)NC(=O)OCc1ccccc1)c1ccccc1 (some centres not stated)	0.05 µM
5 nM	C[C@H](CNC(=O)CN(Cc1ccc(OCc2ccccc2)cc1)C(=O)[C@H](Cc1c[nH]cn1)NC(=O)OCc1ccccc1)c1ccccc1	0.05 µM
4 nM	CC(C)(CNC(=O)CN(Cc1ccc(OCc2ccccc2)cc1)C(=O)[C@H](Cc1c[nH]cn1)NC(=O)OCc1ccccc1)c1ccccc1	0.05 µM
2 nM	N#CC(CNC(=O)CN(Cc1ccc(OCc2ccccc2)cc1)C(=O)[C@H](Cc1c[nH]cn1)NC(=O)OCc1ccccc1)c1ccccc1 (some centres not stated)	0.05 µM

Source: ChEMBL document CHEMBL1130182, “C-terminal modifications of histidyl-N-benzylglycinamides to give improved inhibition of Ras farnesyltransferase, cellular activity, and anticancer activity in mice” (J Med Chem, 1997)
